ChEMBL document CHEMBL1151101, “Irritant principles of the mezereon family (Thymelaeaceae), V. New skin irritants and tumor promoters of the daphnane and 1 alpha-alkyldaphnane type from Synaptolepis kirkii and Synaptolepis retusa” (J Nat Prod, 1988)

Tests used:
[1] = species on record: Mus musculus; assay: Skin irritant activity in NMRI mouse ear assessed as irritant dose 50 per ear after 24 hrs; assay type: ADME, organism-based; settings: in vivo
[2] = species on record: Mus musculus; assay: Skin irritant activity in NMRI mouse ear assessed as irritancy after 24 hrs; assay type: ADME, organism-based; settings: in vivo
[3] = species on record: Mus musculus; assay: Tumor promoting activity of DMBA-initiated tumor in back skin of NMRI mouse assessed as tumor rate at 20 nmol twice weekly measured after 12 weeks; assay type: organism-based, Zone of skin; settings: in vivo, 2016 h
[4] = species on record: Mus musculus; assay: Tumor promoting activity of DMBA-initiated tumor in back skin of NMRI mouse assessed as tumor rate at 20 nmol twice weekly measured after 24 weeks; assay type: organism-based, Zone of skin; settings: in vivo, 4032 h
[5] = species on record: Mus musculus; assay: Tumor promoting activity of DMBA-initiated tumor in back skin of NMRI mouse assessed as average tumor yeild at 20 nmol twice weekly measured after 12 weeks; assay type: organism-based, Zone of skin; settings: in vivo, 2016 h
[6] = species on record: Mus musculus; assay: Tumor promoting activity of DMBA-initiated tumor in back skin of NMRI mouse assessed as average tumor yeild at 20 nmol twice weekly measured after 24 weeks; assay type: organism-based, Zone of skin; settings: in vivo, 4032 h
[7] = Tumor promoting activity of DMBA-initiated tumor in back skin of NMRI mouse assessed as survival rate at 20 nmol twice weekly measured after 24 weeks; assay type: organism-based, Zone of skin; settings: in vivo, topical or ocular
[8] = species on record: Mus musculus; assay: Tumor promoting activity of DMBA-initiated tumor in back skin of NMRI mouse assessed as tumor rate at 5 nmol twice weekly measured after 12 weeks; assay type: organism-based, Zone of skin; settings: in vivo, 2016 h
[9] = species on record: Mus musculus; assay: Tumor promoting activity of DMBA-initiated tumor in back skin of NMRI mouse assessed as tumor rate at 2.5 nmol twice weekly measured after 12 weeks; assay type: organism-based, Zone of skin; settings: in vivo, 2016 h
[10] = species on record: Mus musculus; assay: Tumor promoting activity of DMBA-initiated tumor in back skin of NMRI mouse assessed as tumor rate at 5 nmol twice weekly measured after 24 weeks; assay type: organism-based, Zone of skin; settings: in vivo, 4032 h
[11] = species on record: Mus musculus; assay: Tumor promoting activity of DMBA-initiated tumor in back skin of NMRI mouse assessed as tumor rate at 2.5 nmol twice weekly measured after 24 weeks; assay type: organism-based, Zone of skin; settings: in vivo, 4032 h
[12] = species on record: Mus musculus; assay: Tumor promoting activity of DMBA-initiated tumor in back skin of NMRI mouse assessed as average tumor yeild at 5 nmol twice weekly measured after 12 weeks; assay type: organism-based, Zone of skin; settings: in vivo, 2016 h
[13] = species on record: Mus musculus; assay: Tumor promoting activity of DMBA-initiated tumor in back skin of NMRI mouse assessed as average tumor yeild at 2.5 nmol twice weekly measured after 12 weeks; assay type: ADME, organism-based, Zone of skin; settings: in vivo, 2016 h
[14] = species on record: Mus musculus; assay: Tumor promoting activity of DMBA-initiated tumor in back skin of NMRI mouse assessed as average tumor yeild at 5 nmol twice weekly measured after 24 weeks; assay type: organism-based, Zone of skin; settings: in vivo, 4032 h
[15] = species on record: Mus musculus; assay: Tumor promoting activity of DMBA-initiated tumor in back skin of NMRI mouse assessed as average tumor yeild at 2.5 nmol twice weekly measured after 24 weeks; assay type: ADME, organism-based, Zone of skin; settings: in vivo, 4032 h
[16] = Tumor promoting activity of DMBA-initiated tumor in back skin of NMRI mouse assessed as survival rate at 5 nmol twice weekly measured after 24 weeks; assay type: organism-based, Zone of skin; settings: in vivo, topical or ocular
[17] = Tumor promoting activity of DMBA-initiated tumor in back skin of NMRI mouse assessed as survival rate at 2.5 nmol twice weekly measured after 24 weeks; assay type: organism-based, Zone of skin; settings: in vivo, topical or ocular
[18] = species on record: Mus musculus; assay: Tumor promoting activity of DMBA-initiated tumor in back skin of NMRI mouse assessed as tumor rate at 10 nmol twice weekly measured after 12 weeks; assay type: organism-based, Zone of skin; settings: in vivo, 2016 h
[19] = species on record: Mus musculus; assay: Tumor promoting activity of DMBA-initiated tumor in back skin of NMRI mouse assessed as tumor rate at 10 nmol twice weekly measured after 24 weeks; assay type: organism-based, Zone of skin; settings: in vivo, 4032 h
[20] = species on record: Mus musculus; assay: Tumor promoting activity of DMBA-initiated tumor in back skin of NMRI mouse assessed as average tumor yeild at 10 nmol twice weekly measured after 12 weeks; assay type: organism-based, Zone of skin; settings: in vivo, 2016 h
[21] = species on record: Mus musculus; assay: Tumor promoting activity of DMBA-initiated tumor in back skin of NMRI mouse assessed as average tumor yeild at 10 nmol twice weekly measured after 24 weeks; assay type: organism-based, Zone of skin; settings: in vivo, 4032 h
[22] = Tumor promoting activity of DMBA-initiated tumor in back skin of NMRI mouse assessed as survival rate at 10 nmol twice weekly measured after 24 weeks; assay type: organism-based, Zone of skin; settings: in vivo, topical or ocular

Structure (SMILES): C=C(C)[C@]12C[C@@H](C)[C@@]34O[C@](/C=C\C=C\CCCCCCCCCC)(O[C@@H]1[C@@H]3[C@@H]1O[C@]1(CO)[C@@H](O)[C@]1(O)C(=O)C(C)=C[C@H]14)O2
- Activity [1]: 0.02 nmol
- Activity [2]: 50 nmol⁻¹

Structure (SMILES): C=C(C)[C@]12C[C@@H](C)[C@@]34O[C@](/C=C/CCCCCCCCCCCCC)(O[C@@H]1[C@@H]3[C@@H]1O[C@]1(COC(=O)CCCCCCCCCCCCCCC)[C@@H](O)[C@]1(O)C(=O)C(C)=C[C@H]14)O2
- Activity [1]: 0.16 nmol
- Activity [2]: 6.3 nmol⁻¹

Structure (SMILES): C=C(C)[C@]12O[C@@]3(/C=C/C=C/C=C\CCC)O[C@@H]1[C@@H]1[C@@H]4O[C@]4(CO)[C@@H](O)[C@]4(O)C(=O)C(C)=C[C@H]4[C@@]1(O3)[C@H](C)[C@H]2O
- Activity [1]: 0.81 nmol
- Activity [2]: 1.2 nmol⁻¹

Structure (SMILES): C=C(C)[C@]12O[C@@]3(/C=C/C=C/CCCCCCCCC)O[C@@H]1[C@@H]1[C@@H]4O[C@]4(CO)[C@@H](O)[C@]4(O)C(=O)C(C)=C[C@H]4[C@@]1(O3)[C@H](C)[C@H]2OC(C)=O
- Activity [1]: 0.03 nmol
- Activity [2]: 33 nmol⁻¹

Structure (SMILES): C=C(C)[C@]12O[C@@]3(/C=C/C=C/C=C\CCC)O[C@@H]1[C@@H]1[C@@H]4O[C@]4(CO)[C@@H](O)[C@]4(O)C(=O)C(C)=C[C@H]4[C@@]1(O3)[C@H](C)[C@H]2OC(C)=O
- Activity [1]: 1.1 nmol
- Activity [2]: 0.91 nmol⁻¹
- Activity [3]: 0%
- Activity [4]: 0%
- Activity [5]: 0
- Activity [6]: 0
- survival at 4032 h [7]: 100%

Structure (SMILES): C=C(C)[C@]12O[C@@]34/C=C/CCCCCCCCCCCC(C)[C@H]5[C@H](C)C(=O)[C@@]6(O)[C@H](O)[C@@]7(CO)O[C@H]7[C@@H]([C@H]1O3)[C@](O4)([C@H](C)[C@H]2O)[C@H]56 (stereo partly specified)
- Activity [1]: 0.0015 nmol
- Activity [2]: 667 nmol⁻¹
- Activity [8]: 60%
- Activity [9]: 6.7%
- Activity [10]: 86%
- Activity [11]: 87%
- Activity [12]: 1.3
- Activity [13]: 0.33
- Activity [14]: 2.7
- Activity [15]: 2.9
- survival at 4032 h [16]: 94%
- survival at 4032 h [17]: 100%

Structure (SMILES): C=C(C)[C@]12O[C@@]34/C=C/CCCCCCCCCCC[C@H](C)[C@H]5[C@H](C)C(=O)[C@@]6(O)[C@H](O)[C@@]7(CO)O[C@H]7[C@@H]([C@H]1O3)[C@](O4)([C@H](C)[C@H]2OC(C)=O)[C@H]56
- Activity [1]: 0.01 nmol
- Activity [2]: 100 nmol⁻¹
- Activity [8]: 33%
- Activity [9]: 0%
- Activity [10]: 100%
- Activity [11]: 27%
- Activity [12]: 0.33
- Activity [13]: 0
- Activity [14]: 4.4
- Activity [15]: 0.6
- survival at 4032 h [16]: 99%
- survival at 4032 h [17]: 94%

Structure (SMILES): C=C(C)[C@@]1(OC(=O)/C=C/CCCCCCCCCCCCC)C[C@@H](C)[C@@]2(O)[C@H]([C@H]1O)[C@@H]1O[C@]1(CO)[C@@H](O)[C@]1(O)C(=O)C(C)=C[C@H]12
- Activity [1]: 0.08 nmol
- Activity [2]: 13 nmol⁻¹

Structure (SMILES): C=C(C)[C@]12C[C@@H](C)[C@@]34O[C@](CCCCCCCCCCCCCCC)(O[C@@H]1[C@@H]3[C@@H]1O[C@]1(CO)[C@@H](O)[C@]1(O)C(=O)C(C)=C[C@H]14)O2
- Activity [1]: 0.04 nmol
- Activity [2]: 25 nmol⁻¹

Structure (SMILES): C=C(C)[C@@]12C[C@@H](C)[C@@]34O[C@@]5(/C=C/CCCCCCCCCCCC(C)[C@H]6[C@H](C)C(=O)[C@@](O)([C@H](O)[C@@]7(COC(=O)CCCCCCCCCCCCCCC)O[C@H]7[C@H]3[C@H]1O5)[C@@H]64)O2 (stereo partly specified)
- Activity [1]: 0.019 nmol
- Activity [2]: 53 nmol⁻¹

Structure (SMILES): C=C(C)[C@]12O[C@@]3(/C=C/C=C/CCCCC)O[C@@H]1[C@@H]1[C@@H]4O[C@]4(CO)[C@@H](O)[C@]4(O)C(=O)C(C)=C[C@H]4[C@@]1(O3)[C@H](C)[C@H]2O
- Activity [1]: 0.92 nmol
- Activity [2]: 1.1 nmol⁻¹

Structure (SMILES): C=C(C)[C@@]1(O)C[C@@H](C)[C@@]2(O)[C@H]([C@H]1OC(=O)/C=C/CCCCCCCCCCCCC)[C@@H]1O[C@]1(CO)[C@@H](O)[C@]1(O)C(=O)C(C)=C[C@H]12
- Activity [1]: 0.035 nmol
- Activity [2]: 29 nmol⁻¹

Structure (SMILES): C=C(C)[C@@]1(O)C[C@@H](C)[C@@]2(O)[C@H]([C@H]1OC(=O)/C=C/CCCCCCCCCCCCC)[C@@H]1O[C@]1(COC(=O)CCCCCCCCCCCCCCC)[C@@H](O)[C@]1(O)C(=O)C(C)=C[C@H]12
- Activity [1]: 20 nmol
- Activity [2]: 0.15 nmol⁻¹

Structure (SMILES): C=C(C)[C@@]12C[C@@H](C)[C@@]34O[C@@]5(/C=C/CCCCCCCCCCCC(C)(O)[C@H]6[C@H](C)C(=O)[C@@](O)([C@H](O)[C@@]7(CO)O[C@H]7[C@H]3[C@H]1O5)[C@@H]64)O2 (stereo partly specified)
- Activity [1]: 0.016 nmol
- Activity [2]: 6 nmol⁻¹

Structure (SMILES): C=C(C)[C@]12C[C@@H](C)[C@@]34O[C@](CCCCCCCCC)(O[C@@H]1[C@@H]3[C@@H]1O[C@]1(CO)[C@@H](O)[C@]1(O)C(=O)C(C)=C[C@H]14)O2 [SIMPLEXIN]
- Activity [1]: 0.013 nmol
- Activity [2]: 77 nmol⁻¹
- Activity [3]: 20%
- Activity [18]: 4%
- Activity [4]: 71%
- Activity [19]: 54%
- Activity [5]: 0.6
- Activity [20]: 0.2
- Activity [6]: 3
- Activity [21]: 1.7
- survival at 4032 h [7]: 100%
- survival at 4032 h [22]: 93%

Structure (SMILES): C=C(C)[C@]12C[C@@H](C)[C@@]34O[C@](/C=C\C=C\CCCCC)(O[C@@H]1[C@@H]3[C@@H]1O[C@]1(CO)[C@@H](O)[C@]1(O)C(=O)C(C)=C[C@H]14)O2
- Activity [1]: 0.15 nmol
- Activity [2]: 6.7 nmol⁻¹

Structure (SMILES): C=C(C)[C@]12C[C@@H](C)[C@@]34O[C@](/C=C/CCCCCCCCCCCCC)(O[C@@H]1[C@@H]3[C@@H]1O[C@]1(CO)[C@@H](O)[C@]1(O)C(=O)C(C)=C[C@H]14)O2
- Activity [1]: 0.02 nmol
- Activity [2]: 50 nmol⁻¹
- Activity [18]: 94%
- Activity [8]: 6%
- Activity [19]: 100%
- Activity [10]: 69%
- Activity [20]: 4.7
- Activity [12]: 0.13
- Activity [21]: 9.7
- Activity [14]: 2.9
- survival at 4032 h [22]: 94%
- survival at 4032 h [16]: 100%

Structure (SMILES): C=C(C)[C@]12O[C@@]3(/C=C/C=C/CCCCC)O[C@@H]1[C@@H]1[C@@H]4O[C@]4(CO)[C@@H](O)[C@]4(O)C(=O)C(C)=C[C@H]4[C@@]1(O3)[C@H](C)[C@H]2OC(C)=O
- Activity [1]: 0.27 nmol
- Activity [2]: 3.7 nmol⁻¹
- Activity [3]: 0%
- Activity [4]: 14%
- Activity [5]: 0
- Activity [6]: 0.36
- survival at 4032 h [7]: 88%
